Data reported in the supplement of paper PMC12406974.

Assays:
Assay in all cases: maximum observed lethal fraction; higher = more cell death
U2OS BAX/BAK1 DKO = tested on: U2OS BAX/BAK1 DKO
U2OS BCL2L12-KO = tested on: U2OS BCL2L12-KO
U2OS PTBP1-KO = tested on: U2OS PTBP1-KO
U2OS = tested on: U2OS
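Further: FLICK assay: SYTOX Green fluorescence of dead cells tracked over time after drugging in 96-well plates, with total cell counts taken from Triton X-100 lysed wells.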

CN(C)C(=O)c1cc2cnc(Nc3ccc(N4CCNCC4)cn3)nc2n1C1CCCC1 [Ribociclib]
maximum observed lethal fraction
Details	0.01 µM	0.0316 µM	0.1 µM	0.316 µM	1 µM	3.16 µM	10 µM
U2OS	0.0675	0.0565	0.0602	0.0591	0.0629	0.0661	0.077
U2OS BAX/BAK1 DKO	0.0572	0.057	0.0609	0.0673	0.0658	0.0721	0.082
U2OS BCL2L12-KO	0.0551	0.0572	0.0587	0.0607	0.0645	0.07	0.0804
U2OS PTBP1-KO	0.0584	0.0595	0.064	0.0704	0.0696	0.0751	0.0787

Nc1ncnc2c1ncn2[C@@H]1O[C@H](CO)C[C@H]1O [Cordycepin]
maximum observed lethal fraction
Details	0.1 µM	0.316 µM	1 µM	3.16 µM	10 µM	31.6 µM	100 µM
U2OS	0.0524	0.0543	0.0522	0.0545	0.054	0.0774	0.451
U2OS BAX/BAK1 DKO	0.0507	0.0537	0.0531	0.0551	0.0542	0.0698	0.072
U2OS BCL2L12-KO	0.0657	0.0642	0.064	0.068	0.0693	0.0825	0.616
U2OS PTBP1-KO	0.068	0.0684	0.0659	0.0646	0.0665	0.0847	0.517

CC(=O)c1c(C)c2cnc(Nc3ccc(N4CCNCC4)cn3)nc2n(C2CCCC2)c1=O [Palbociclib]
maximum observed lethal fraction
Details	0.01 µM	0.0316 µM	0.1 µM	0.316 µM	1 µM	3.16 µM	10 µM
U2OS	0.0597	0.068	0.0645	0.0683	0.0747	0.09	0.173
U2OS BAX/BAK1 DKO	0.0642	0.0646	0.0686	0.0764	0.0783	0.0842	0.0911
U2OS BCL2L12-KO	0.0599	0.0645	0.0667	0.0699	0.0732	0.0829	0.221
U2OS PTBP1-KO	0.0641	0.0713	0.0739	0.0802	0.0817	0.0847	0.109

Nc1cc(C(F)(F)F)c(-c2cc(N3CCOCC3)nc(N3CCOCC3)n2)cn1 [Buparlisib]
maximum observed lethal fraction
Details	0.0316 µM	0.1 µM	0.316 µM	1 µM	3.16 µM	10 µM	31.6 µM
U2OS	0.0663	0.0713	0.0748	0.109	0.275	0.463	0.513
U2OS BAX/BAK1 DKO	0.0655	0.0661	0.0716	0.091	0.0979	0.11	0.116
U2OS BCL2L12-KO	0.0818	0.0866	0.0955	0.176	0.287	0.349	0.374
U2OS PTBP1-KO	0.0937	0.0916	0.0993	0.125	0.231	0.304	0.326

CN(C)C/C=C/C(=O)Nc1ccc(C(=O)Nc2cccc(Nc3ncc(Cl)c(-c4c[nH]c5ccccc45)n3)c2)cc1 [THZ1]
maximum observed lethal fraction
Details	0.01 µM	0.0316 µM	0.1 µM	0.316 µM	1 µM	3.16 µM	10 µM
U2OS	0.0758	0.274	0.452	0.441	0.57	0.678	0.76
U2OS BAX/BAK1 DKO	0.0742	0.0981	0.0902	0.1	0.109	0.157	0.12
U2OS BCL2L12-KO	0.0888	0.274	0.475	0.467	0.582	0.742	0.761
U2OS PTBP1-KO	0.101	0.239	0.388	0.33	0.486	0.627	0.707

CCN1CCN(Cc2ccc(Nc3ncc(F)c(-c4cc(F)c5nc(C)n(C(C)C)c5c4)n3)nc2)CC1 [Abemaciclib]
maximum observed lethal fraction
Details	0.01 µM	0.0316 µM	0.1 µM	0.316 µM	1 µM	3.16 µM	10 µM
U2OS	0.0681	0.0675	0.0675	0.0855	0.376	0.314	0.851
U2OS BAX/BAK1 DKO	0.0682	0.0681	0.0721	0.0802	0.0972	0.0964	0.339
U2OS BCL2L12-KO	0.0701	0.071	0.073	0.0769	0.211	0.457	0.889
U2OS PTBP1-KO	0.0734	0.0787	0.081	0.0922	0.161	0.257	0.739

CN1CC[C@H](c2c(O)cc(O)c3c(=O)cc(-c4ccccc4Cl)oc23)[C@H](O)C1 [Flavopiridol]
maximum observed lethal fraction
Details	0.01 µM	0.0316 µM	0.1 µM	0.316 µM	1 µM	3.16 µM	10 µM
U2OS	0.0575	0.0639	0.486	0.528	0.552	0.501	0.356
U2OS BAX/BAK1 DKO	0.0607	0.0712	0.208	0.0919	0.093	0.092	0.0925
U2OS BCL2L12-KO	0.0552	0.0619	0.1	0.279	0.298	0.295	0.249
U2OS PTBP1-KO	0.0606	0.067	0.099	0.198	0.282	0.247	0.198

Cc1[nH]c2ccccc2c1CCNCc1ccc(/C=C/C(=O)NO)cc1 [Panobinostat]
maximum observed lethal fraction
Details	0.001 µM	0.00316 µM	0.01 µM	0.0316 µM	0.1 µM	0.316 µM	1 µM
U2OS	0.0735	0.0836	0.265	0.655	0.761	0.802	0.851
U2OS BAX/BAK1 DKO	0.0715	0.0768	0.0894	0.102	0.108	0.0953	0.0939
U2OS BCL2L12-KO	0.0774	0.0897	0.352	0.775	0.856	0.838	0.895
U2OS PTBP1-KO	0.0914	0.11	0.349	0.527	0.601	0.603	0.65
